# Reference: ChEMBL document CHEMBL2034816, “Synthesis and molecular modelling studies of novel carbapeptide analogs for inhibition of HIV-1 protease” (Eur J Med Chem, 2012)
# pIC50, pKi: −log10 of the molar value.
# Legend:
# Protease [1] = molecular target: T1, Protease (Human immunodeficiency virus 1, UniProt Q9YQ12); assay: Inhibition of HIV1 protease
# [2] = Ratio of compound IC50 to lopinavir IC50 for human MT4 cells after 5 days by XTT assay; type: ADME, cell-based; details: read-out: Ratio IC50
# Protease [3] = molecular target: T1, Protease; assay: Inhibition of South African HIV1 subtype C protease expressed in Escherichia coli BL21S4 (DE3)pLysS cells using Lys-Ala-Arg-Val-Nle-p-nitro-Phe-Glu-Ala-Nle-NH2 as substrate by spectrophotometry
# T1 sequence (Q9YQ12 whole entry): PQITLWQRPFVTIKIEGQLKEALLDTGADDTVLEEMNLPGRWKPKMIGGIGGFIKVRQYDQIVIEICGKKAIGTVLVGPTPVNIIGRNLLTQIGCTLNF
SMILES,pIC50 (Protease [1]),pIC50 (Protease [3]),pKi (Protease [1]),selectivity ratio at 120 h [2]
CC(C)(C)OC(=O)N[C@@H](Cc1ccccc1)[C@@H](O)CC(C/C=C/c1ccccc1)C(=O)N[C@H](C(=O)NC[C@H]1OC(O)[C@H](O)[C@H]1O)C1CCCCC1 (stereo partly specified),9.77,–,–,–
CC(C)[C@H](NC(=O)C[C@H](NCc1ccccc1)C1O[C@@H]2OC(C)(C)O[C@@H]2[C@H]1OCc1ccccc1)C(=O)N[C@@H](C)C(=O)O (stereo partly specified),–,5.89,–,> 5000
CC(C)[C@H](NC(=O)C[C@@H](N)C1O[C@@H]2OC(C)(C)O[C@@H]2[C@H]1O)C(=O)N[C@@H](C)C(=O)O (stereo partly specified),–,6.02,–,> 5000
CC(C)[C@H](NC(=O)[C@H](C)NC(=O)C[C@@H](NCc1ccccc1)C1O[C@@H]2OC(C)(C)O[C@@H]2[C@H]1OCc1ccccc1)C(=O)O (stereo partly specified),–,5.99,–,> 5000
CC(C)[C@H](NC(=O)[C@H](C)NC(=O)C[C@H](NCc1ccccc1)C1O[C@@H]2OC(C)(C)O[C@@H]2[C@H]1OCc1ccccc1)C(=O)O (stereo partly specified),–,6.12,–,> 5000
CC(C)[C@H](NC(=O)[C@H](C)NC(=O)C[C@H](N)C1O[C@@H]2OC(C)(C)O[C@@H]2[C@H]1O)C(=O)O (stereo partly specified),–,< 5.00,–,> 5000
COC(=O)[C@H](CC(C)C)NC(=O)[C@H](Cc1ccccc1)NC(=O)[C@@H]1O[C@@H](C(=O)N[C@@H](Cc2ccccc2)C(C)N[C@@H](CC(C)C)C(=O)OC)[C@@H](O)[C@@H]1O (stereo partly specified),< 2.70,–,–,–

# Second part, led by results:
pIC50 (Protease [1]),pIC50 (Protease [3]),pKi (Protease [1]),SMILES,selectivity ratio at 120 h [2]
–,5.96,–,CC(C)[C@H](NC(=O)C[C@@H](NCc1ccccc1)C1O[C@@H]2OC(C)(C)O[C@@H]2[C@H]1OCc1ccccc1)C(=O)N[C@@H](C)C(=O)O (stereo partly specified),> 5000
–,6.00,–,CC(C)[C@H](NC(=O)C[C@H](N)C1O[C@@H]2OC(C)(C)O[C@@H]2[C@H]1O)C(=O)N[C@@H](C)C(=O)O (stereo partly specified),> 5000
–,< 5.00,–,CC(C)[C@H](NC(=O)[C@H](C)NC(=O)C[C@@H](N)C1O[C@@H]2OC(C)(C)O[C@@H]2[C@H]1O)C(=O)O (stereo partly specified),> 5000
–,6.15,–,CC(C)[C@H](NC(=O)[C@H](C)NC(=O)C[C@H](NCc1ccccc1)C1O[C@@H]2OC(C)(C)O[C@@H]2[C@H]1O)C(=O)O (stereo partly specified),> 5000
–,–,8.91,O=C(N[C@@H]1Cc2ccccc2[C@@H]1O)C(OCc1ccccc1)[C@H](O)[C@@H](O)C(OCc1ccccc1)C(=O)N[C@@H]1Cc2ccccc2[C@@H]1O (stereo partly specified),–
